Here are results for 27 compounds from US20240132431A1, “METHOD FOR ALKYLATING ACIDIC FUNCTIONAL GROUP” (Chugai Seiyaku Kabushiki Kaisha, priority 2021, published 2024).

This experiment concerns the target T1, Bcl-2 protein (Recombinant Human Bcl-2 Protein) (Homo sapiens, UniProt P10415).
T1 construct: purchased Novus NBP2-34889
In words: Binding evaluation of mixture library compounds to Bcl-2 using AS-MS (affinity selection mass spectrometry). The procedure, abridged: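 ASMS Ratio (%) was calculated as (A−C)/B×100, where A is the protein sample after SEC, B the protein-free sample without SEC and C the protein-free sample after SEC. Each compound was at […] in a 1200-member pool with 20 μM Bcl-2, incubated 1 h at 23° C.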

T1 sequence (P10415 whole entry): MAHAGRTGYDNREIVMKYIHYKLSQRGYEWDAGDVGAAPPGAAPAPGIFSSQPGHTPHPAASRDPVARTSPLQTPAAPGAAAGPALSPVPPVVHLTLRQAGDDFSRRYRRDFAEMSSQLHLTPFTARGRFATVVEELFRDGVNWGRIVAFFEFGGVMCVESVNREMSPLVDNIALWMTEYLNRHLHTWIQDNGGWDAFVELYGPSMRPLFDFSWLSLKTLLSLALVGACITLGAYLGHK

`CCOc1cccc(-c2cnn(-c3cc(C(=O)N4CCN(c5ccc(C(=O)NS(=O)(=O)C(C)(C)C)nn5)CC4)cc(C(F)(F)F)c3)c2)c1` [B2L021-01, N-tert-Butylsulfonyl-6-[4-[3-[4-(3-ethoxyphenyl)pyrazol-1-yl]-5-(trifluoromethyl)benzoyl]piperazin-1-yl]pyridazine-3-carboxamide]: the “ASMS ratio (%)” value is listed as 0.0% (n = 1) and −14.9% (n = 2).

In the case of `CCOc1cncc(-c2cnn(-c3cc(C(=O)N4CCN(c5ccc(C(=O)NS(=O)(=O)C(C)(C)C)nn5)CC4)cc(C(F)(F)F)c3)c2)c1` [B2L022-01, N-tert-Butylsulfonyl-6-[4-[3-[4-(5-ethoxypyridin-3-yl)pyrazol-1-yl]-5-(trifluoromethyl)benzoyl]piperazin-1-yl]pyridazine-3-carboxamide], the “ASMS ratio (%)” value was 0.0% (n = 1) and 0.0% (n = 2).

Take `CCOc1cccc(-c2csc(C(=O)N3CCN(c4ccc(C(=O)NS(=O)(=O)C(C)(C)C)cc4)CC3)c2)c1` [B2L023-01, N-tert-Butylsulfonyl-4-[4-[4-(3-ethoxyphenyl)thiophene-2-carbonyl]piperazin-1-yl]benzamide]: the “ASMS ratio (%)” value by setting is: (n = 1) 0.0%; (n = 2) 0.0%.

For the compound `CCOc1cncc(-c2csc(C(=O)N3CCN(c4ccc(C(=O)NS(=O)(=O)C(C)(C)C)cc4)CC3)c2)c1` [B2L024-01, N-tert-Butylsulfonyl-4-[4-[4-(5-ethoxypyridin-3-yl)thiophene-2-carbonyl]piperazin-1-yl]benzamide], the “ASMS ratio (%)” value by setting is: (n = 1) 0.0%; (n = 2) 0.0%.

For the compound `CCOc1cccc(-c2ccc(C(=O)N3CCN(c4ccc(C(=O)NS(=O)(=O)C(C)(C)C)cc4)CC3)cc2C)c1` [B2L025-01, N-tert-Butylsulfonyl-4-[4-[4-(3-ethoxyphenyl)-3-methylbenzoyl]piperazin-1-yl]benzamide], the “ASMS ratio (%)” value runs as follows: (n = 1) 0.0%; (n = 2) 0.0%.

Turning to `CCOc1cncc(-c2ccc(C(=O)N3CCN(c4ccc(C(=O)NS(=O)(=O)C(C)(C)C)cc4)CC3)cc2C)c1` [B2L026-01, N-tert-Butylsulfonyl-4-[4-[4-(5-ethoxypyridin-3-yl)-3-methylbenzoyl]piperazin-1-yl]benzamide], the “ASMS ratio (%)” value is listed as 0.0% (n = 1) and 0.0% (n = 2).

Regarding `CCOc1cccc(-c2ccc(C(=O)N3CCN(c4ccc(C(=O)NS(=O)(=O)C(C)(C)C)cc4)CC3)cc2F)c1` [B2L027-01, N-tert-Butylsulfonyl-4-[4-[4-(3-ethoxyphenyl)-3-fluorobenzoyl]piperazin-1-yl]benzamide], the “ASMS ratio (%)” value is given as 0.0% (n = 1) and 0.0% (n = 2).

As for `CCOc1cncc(-c2ccc(C(=O)N3CCN(c4ccc(C(=O)NS(=O)(=O)C(C)(C)C)cc4)CC3)cc2F)c1` [B2L028-01, N-tert-Butylsulfonyl-4-[4-[4-(5-ethoxypyridin-3-yl)-3-fluorobenzoyl]piperazin-1-yl]benzamide], the “ASMS ratio (%)” value stood at 0.0% (n = 1) and 0.0% (n = 2).

Consider `CCOc1cccc(C#Cc2ccccc2C(=O)N2CCN(c3ccc(C(=O)NS(=O)(=O)C(C)(C)C)cc3)CC2)c1` [B2L029-01, N-tert-Butylsulfonyl-4-[4-[2-[2-(3-ethoxyphenyl)ethynyl]benzoyl]piperazin-1-yl]benzamide], for which the “ASMS ratio (%)” value (n = 1) was 0.0%.

Turning to `CCOc1cccc(C#Cc2cncc(C(=O)N3CCN(c4ccc(C(=O)NS(=O)(=O)C(C)(C)C)cc4)CC3)c2)c1` [B2L031-01, N-tert-Butylsulfonyl-4-[4-[5-[2-(3-ethoxyphenyl)ethynyl]pyridine-3-carbonyl]piperazin-1-yl]benzamide], the “ASMS ratio (%)” value is, setting by setting: (n = 1) 0.0%; (n = 2) 0.0%.

For the compound `CCOc1cncc(C#Cc2cncc(C(=O)N3CCN(c4ccc(C(=O)NS(=O)(=O)C(C)(C)C)cc4)CC3)c2)c1` [B2L032-01, N-tert-Butylsulfonyl-4-[4-[5-[2-(5-ethoxypyridin-3-yl)ethynyl]pyridine-3-carbonyl]piperazin-1-yl]benzamide], the “ASMS ratio (%)” value by setting is: (n = 1) 0.0%; (n = 2) −1.0%.

As for `CCOc1cccc(-c2ccccc2CCC(=O)N2CCN(c3ccc(C(=O)NS(=O)(=O)C(C)(C)C)cc3)CC2)c1` [B2L033-01, N-tert-Butylsulfonyl-4-[4-[3-[2-(3-ethoxyphenyl)phenyl]propanoyl]piperazin-1-yl]benzamide], the “ASMS ratio (%)” value amounted to 0.0% (n = 1) and 0.0% (n = 2).

In the case of `CCOc1cncc(-c2ccccc2CCC(=O)N2CCN(c3ccc(C(=O)NS(=O)(=O)C(C)(C)C)cc3)CC2)c1` [B2L034-01, N-tert-Butylsulfonyl-4-[4-[3-[2-(5-ethoxypyridin-3-yl)phenyl]propanoyl]piperazin-1-yl]benzamide], the “ASMS ratio (%)” value (n = 1) is listed as 1.6% and the “ASMS ratio (%)” value (n = 2) came to 3.5%.

Turning to `CCOc1cccc(-c2ccc(C(=O)N3CCN(c4ccc(C(=O)NS(=O)(=O)C(C)(C)C)cc4)CC3)c3ccccc23)c1` [B2L035-01, N-tert-Butylsulfonyl-4-[4-[4-(3-ethoxyphenyl)naphthalene-1-carbonyl]piperazin-1-yl]benzamide], for the setting “n = 1”, the “ASMS ratio (%)” value was 0.0%.

For `CCOc1cncc(-c2ccc(C(=O)N3CCN(c4ccc(C(=O)NS(=O)(=O)C(C)(C)C)cc4)CC3)c3ccccc23)c1` [B2L036-01, N-tert-Butylsulfonyl-4-[4-[4-(5-ethoxypyridin-3-yl)naphthalene-1-carbonyl]piperazin-1-yl]benzamide], the “ASMS ratio (%)” value is, setting by setting: (n = 1) 0.0%; (n = 2) 0.0%.

Turning to `CCOc1cccc(-c2cc(C(=O)N3CCN(c4ccc(C(=O)NS(=O)(=O)C(C)(C)C)cc4)CC3)cc(C(C)(C)C)c2)c1` [B2L037-01, 4-[4-[3-tert-Butyl-5-(3-ethoxyphenyl)benzoyl]piperazin-1-yl]-N-tert-butylsulfonylbenzamide], the “ASMS ratio (%)” value (n = 1) was 0.0% and the “ASMS ratio (%)” value (n = 2) is reported as 0.0%.

Take `CCOc1cncc(-c2cc(C(=O)N3CCN(c4ccc(C(=O)NS(=O)(=O)C(C)(C)C)cc4)CC3)cc(C(C)(C)C)c2)c1` [B2L038-01, 4-[4-[3-tert-Butyl-5-(5-ethoxypyridin-3-yl)benzoyl]piperazin-1-yl]-N-tert-butylsulfonylbenzamide]: the “ASMS ratio (%)” value runs as follows: (n = 1) 0.0%; (n = 2) 0.0%.

Take `CCOc1cccc(-c2cc(C(=O)N3CCN(c4ccc(C(=O)NS(=O)(=O)C(C)(C)C)cc4)CC3)cc(C(F)(F)F)c2)c1` [B2L039-01, N-tert-Butylsulfonyl-4-[4-[3-(3-ethoxyphenyl)-5-(trifluoromethyl)benzoyl]piperazin-1-yl]benzamide]: the “ASMS ratio (%)” value is 0.0% (n = 1) and 0.0% (n = 2).

Regarding `CCOc1cncc(-c2cc(C(=O)N3CCN(c4ccc(C(=O)NS(=O)(=O)C(C)(C)C)cc4)CC3)cc(C(F)(F)F)c2)c1` [B2L040-01, N-tert-Butylsulfonyl-4-[4-[3-(5-ethoxypyridin-3-yl)-5-(trifluoromethyl)benzoyl]piperazin-1-yl]benzamide], the “ASMS ratio (%)” value is −0.2% (n = 1) and 1.0% (n = 2).

As for `CCOc1cccc(C#Cc2cc(C(=O)N3CCN(c4ccc(C(=O)NS(=O)(=O)C(C)(C)C)cc4)CC3)cc(C(F)(F)F)c2)c1` [B2L041-01, N-tert-Butylsulfonyl-4-[4-[3-[2-(3-ethoxyphenyl)ethynyl]-5-(trifluoromethyl)benzoyl]piperazin-1-yl]benzamide], the “ASMS ratio (%)” value (n = 1) is given as 0.0%.

Regarding `CCOc1cncc(C#Cc2cc(C(=O)N3CCN(c4ccc(C(=O)NS(=O)(=O)C(C)(C)C)cc4)CC3)cc(C(F)(F)F)c2)c1` [B2L042-01, N-tert-Butylsulfonyl-4-[4-[3-[2-(5-ethoxypyridin-3-yl)ethynyl]-5-(trifluoromethyl)benzoyl]piperazin-1-yl]benzamide], the “ASMS ratio (%)” value was determined as 0.0% (n = 1) and 0.0% (n = 2).

As for `CCOc1cccc(-c2cnn(-c3cc(C(=O)N4CCN(c5ccc(C(=O)NS(=O)(=O)C(C)(C)C)cc5)CC4)cc(C(F)(F)F)c3)c2)c1` [B2L043-01, N-tert-Butylsulfonyl-4-[4-[3-[4-(3-ethoxyphenyl)pyrazol-1-yl]-5-(trifluoromethyl)benzoyl]piperazin-1-yl]benzamide], the “ASMS ratio (%)” value runs as follows: (n = 1) 0.0%; (n = 2) 0.0%.

As to `CCOc1cccc(-c2ccccc2CN2CCN(c3ccc(C(=O)NS(=O)(=O)C(C)(C)C)cc3)CC2)c1` [B2L045-01, N-tert-Butylsulfonyl-4-[4-[[2-(3-ethoxyphenyl)phenyl]methyl]piperazin-1-yl]benzamide], the “ASMS ratio (%)” value (n = 1) came out at 0.0% and the “ASMS ratio (%)” value (n = 2) is given as 0.0%.

As for `CCOc1cncc(-c2ccccc2CN2CCN(c3ccc(C(=O)NS(=O)(=O)C(C)(C)C)cc3)CC2)c1` [B2L046-01, N-tert-Butylsulfonyl-4-[4-[[2-(5-ethoxypyridin-3-yl)phenyl]methyl]piperazin-1-yl]benzamide], the “ASMS ratio (%)” value (n = 1) turned out to be 0.0% and the “ASMS ratio (%)” value (n = 2) was determined as 0.0%.

In the case of `CCOc1cccc(-c2ccc(CN3CCN(c4ccc(C(=O)NS(=O)(=O)C(C)(C)C)cc4)CC3)cc2C)c1` [B2L047-01, N-tert-Butylsulfonyl-4-[4-[[4-(3-ethoxyphenyl)-3-methylphenyl]methyl]piperazin-1-yl]benzamide], the “ASMS ratio (%)” value by setting is: (n = 1) 0.0%; (n = 2) 0.0%.

As for `CCOc1cncc(-c2ccc(CN3CCN(c4ccc(C(=O)NS(=O)(=O)C(C)(C)C)cc4)CC3)cc2C)c1` [B2L048-01], the “ASMS ratio (%)” value by setting is: (n = 1) 3.9%; (n = 2) −5.0%.

As for `CCOc1cccc(-c2ccc(CN3CCN(c4ccc(C(=O)NS(=O)(=O)C(C)(C)C)cc4)CC3)c(CC)c2)c1` [B2L049-01, N-tert-Butylsulfonyl-4-[4-[[4-(3-ethoxyphenyl)-2-ethylphenyl]methyl]piperazin-1-yl]benzamide], under “n = 2”, the “ASMS ratio (%)” value is on record as 0.0%.
